Tests used:
Test in all cases: relative viability (nuclei count vs DMSO), 5 days (fraction); higher = more cells survive
Ruxolitinib + Bortezomib = compound: N#CC[C@H](C1CCCC1)n1cc(-c2ncnc3[nH]ccc23)cn1 [Ruxolitinib] + CC(C)C[C@H](NC(=O)[C@H](Cc1ccccc1)NC(=O)c1cnccn1)B(O)O [Bortezomib] (partner 0.002 µM)
Outline: (§1)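 The day after seeding in 1536-well plates, lung cancer cell lines were treated by pin tool with a single drug, or with a fixed anchor-drug dose together with five library-drug doses (not always all listed) in √10 steps. After 5 days, a combined fix-and-stain solution (final 0.05% Triton X-100, 1% formaldehyde, 1 ug/ml Hoechst) was added. Nuclei counted on 4× images gave relative viability as treated counts over vehicle counts, reported as the median of duplicate plates.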

Vismodegib + Pemetrexed = compound: CS(=O)(=O)c1ccc(C(=O)Nc2ccc(Cl)c(-c3ccccn3)c2)c(Cl)c1 [Vismodegib] + Nc1nc2[nH]cc(CCc3ccc(C(=O)N[C@@H](CCC(=O)O)C(=O)O)cc3)c2c(=O)[nH]1 [Pemetrexed] (partner 0.2 µM)
Outline: as §1

Ruxolitinib + Lapatinib = compound: N#CC[C@H](C1CCCC1)n1cc(-c2ncnc3[nH]ccc23)cn1 [Ruxolitinib] + CS(=O)(=O)CCNCc1ccc(-c2ccc3ncnc(Nc4ccc(OCc5cccc(F)c5)c(Cl)c4)c3c2)o1 [Lapatinib] (partner 2 µM)
Outline: as §1

Ruxolitinib + Tozasertib = compound: N#CC[C@H](C1CCCC1)n1cc(-c2ncnc3[nH]ccc23)cn1 [Ruxolitinib] + Cc1cc(Nc2cc(N3CCN(C)CC3)nc(Sc3ccc(NC(=O)C4CC4)cc3)n2)n[nH]1 [Tozasertib] (partner 0.1 µM)
Outline: as §1

Cell Line	relative viability (Ruxolitinib + Bortezomib; first compound 0.08 µM)	relative viability (Ruxolitinib + Bortezomib; first compound 0.253 µM)	relative viability (Ruxolitinib + Bortezomib; first compound 0.8 µM)	relative viability (Ruxolitinib + Bortezomib; first compound 2.53 µM)	relative viability (Ruxolitinib + Bortezomib; first compound 8 µM)	relative viability (Vismodegib + Pemetrexed; first compound 0.08 µM)	relative viability (Vismodegib + Pemetrexed; first compound 0.253 µM)	relative viability (Vismodegib + Pemetrexed; first compound 0.8 µM)	relative viability (Vismodegib + Pemetrexed; first compound 2.53 µM)	relative viability (Vismodegib + Pemetrexed; first compound 8 µM)	relative viability (Ruxolitinib + Lapatinib; first compound 0.08 µM)	relative viability (Ruxolitinib + Lapatinib; first compound 0.253 µM)	relative viability (Ruxolitinib + Lapatinib; first compound 0.8 µM)	relative viability (Ruxolitinib + Lapatinib; first compound 2.53 µM)	relative viability (Ruxolitinib + Lapatinib; first compound 8 µM)	relative viability (Ruxolitinib + Tozasertib; first compound 0.08 µM)	relative viability (Ruxolitinib + Tozasertib; first compound 0.253 µM)	relative viability (Ruxolitinib + Tozasertib; first compound 0.8 µM)	relative viability (Ruxolitinib + Tozasertib; first compound 2.53 µM)	relative viability (Ruxolitinib + Tozasertib; first compound 8 µM)
NCI-H1975	0.415	0.382	0.482	0.303	0.316	0.309	0.264	0.293	0.263	0.287	0.952	0.955	0.831	0.71	0.858	0.724	0.78	0.682	0.767	0.389
EPLC-272H	0.846	0.976	0.984	0.937	0.734	0.285	0.418	0.324	0.317	0.33	0.164	1.08	0.953	1	0.671	0.25	0.407	0.241	0.345	0.264
EMC-BAC-2	1.12	1.06	1.15	1.06	0.811	0.469	0.442	0.423	0.461	0.518	0.945	0.786	0.974	0.901	0.713	0.292	0.288	0.279	0.262	0.236
PC-3 [JPC-3]	0.63	0.819	0.738	0.796	0.7	1.05	1.03	1.13	1.16	0.651	0.452	0.431	0.46	0.488	0.505	0.77	0.894	0.862	0.824	0.859
NCI-H1666	0.685	0.833	0.861	0.781	0.96	0.852	0.912	0.836	0.843	0.925	0.584	0.629	0.738	0.844	0.656	0.596	0.579	0.587	0.585	0.521
NCI-H1915	0.956	0.955	0.91	0.961	0.905	0.464	0.434	0.515	0.444	0.49	0.973	1	0.927	0.999	0.798	0.462	0.434	0.464	0.398	0.419
HCC-15	1.08	1.05	1.01	0.99	0.926	0.215	0.215	0.265	0.219	0.228	0.859	0.905	0.869	0.786	0.779	0.406	0.434	0.519	0.481	0.421
EKVX	0.785	0.994	0.986	0.989	0.929	–	0.334	0.359	0.402	0.387	0.224	0.194	0.231	0.207	0.188	0.392	0.439	0.463	0.282	0.443
PC-14	–	0.969	0.875	0.789	0.603	0.148	0.135	0.133	0.144	0.136	–	0.243	0.347	0.316	0.313	–	0.677	0.58	0.471	0.483
NCI-H650	–	0.777	0.812	0.888	0.478	0.896	0.983	0.898	0.958	1.01	–	0.925	1.05	0.842	0.667	–	0.834	0.788	0.554	0.603
NCI-H1650	–	0.185	0.188	0.18	0.195	0.332	0.333	0.334	0.372	0.354	–	0.826	1.05	0.761	0.89	–	0.503	0.386	0.455	0.357
NCI-H1355	1.25	1.13	1.14	1.11	1.22	0.985	1.06	0.959	1.02	1.01	0.939	0.898	1.01	0.902	0.863	0.575	0.564	0.571	0.594	0.574
HOP-62	–	0.719	1.15	0.856	0.763	0.305	0.295	0.263	0.377	0.272	–	1.07	1.16	0.91	0.914	0.345	0.394	0.415	0.402	0.348
NCI-H3122	1.02	0.986	0.92	0.926	0.873	0.201	0.199	0.228	0.184	0.19	0.928	1.04	0.98	0.848	0.934	–	0.35	0.493	0.439	0.441
NCI-H1437	0.634	0.519	0.586	0.413	0.464	0.297	0.308	0.339	0.288	0.316	0.976	0.883	0.926	0.695	0.57	0.457	0.39	0.406	0.413	0.422
BEN	0.634	0.693	0.824	0.747	1.16	0.679	0.682	0.784	0.754	0.737	0.798	0.76	0.766	0.767	0.777	0.486	0.503	0.552	0.537	0.453
NCI-H520	–	0.323	0.859	0.323	0.364	0.743	0.619	0.827	0.709	0.666	–	0.815	1.04	0.588	0.671	0.553	0.467	0.537	0.439	0.477
NCI-H2087	0.849	0.853	0.985	0.821	0.701	0.692	0.657	0.651	0.643	0.657	1.05	1.1	1.16	0.786	1.04	0.256	0.229	0.24	0.276	0.299
NCI-H2347	–	0.907	0.931	0.917	1.2	0.423	0.423	0.459	0.435	0.458	0.825	0.964	0.912	0.836	0.734	0.612	0.561	0.554	0.725	0.701
NCI-H838	0.875	0.652	0.887	0.398	0.342	0.226	0.247	0.241	0.23	0.262	1	0.803	0.873	0.446	0.406	0.299	0.23	0.256	0.223	0.225
LXF-289	1	0.963	0.991	0.933	0.897	0.897	0.94	0.933	0.978	0.759	0.849	0.891	0.861	0.825	0.786	0.215	0.165	0.233	0.134	0.187
LC-2-ad	1.04	0.861	1.22	0.98	0.609	0.269	0.271	0.278	0.276	0.26	0.989	0.878	0.868	0.773	0.34	–	0.435	0.548	0.482	0.515
NCI-H2085	0.964	1.06	1.26	0.904	0.822	0.78	0.887	0.944	0.98	0.865	0.853	0.67	1	0.725	0.806	0.882	0.765	0.886	0.77	0.688

Reference: the supplement of paper PMC10307832
